Source: US20090085008A1, “Cellulose compound composition and cellulose compound film” (FUJIFILM Corporation, priority 2005, published 2009)

Test: Solubility in mixture solvent methylene chloride:methanol = 87:13
Format: physicochemical
Details: Methylene chloride:Methanol = 87:13 (mass ratio)
Method: A test was conducted to evaluate the solubility of the compound represented by formula (1) or (2), which can be used in the present invention, in a halogen-containing mixture solution.

COc1cc(OC)c(C(=O)Oc2ccc(C(=O)Oc3ccc(-c4ccc(OC(=O)c5ccc(OC(=O)c6cc(OC)c(OC)cc6OC)cc5)cc4)cc3)cc2)cc1OC [Analogous compound]
Solubility: 1%
